Reference: publication PMC5412686 (Biopharmaceutics & Drug Disposition, 2017)
In brackets after ≈: the same amount, converted by molar mass. Like-named read-outs stand apart in the source and are kept apart here.

What was measured:
[1] = Humans, blood/plasma ratio; ref Supplemental Table S1; cited from earlier work
[2] = human, Caco-2, pH 7.4, with cyclosporine A 10 μM
[3] = tested on: Caco‐2 cells (TC7 clone); settings: Equation 11 from measured P‐Caco2
[4] = Rat i.v. and oral pharmacokinetics from literature; assay type: in vivo, rats; settings: liver blood flow 80 ml/min/kg
[5] = Humans, cited from earlier work; for Urinary excretion (f e): excreted unchanged in urine, ref Supplemental Table S1; for CL: i.v.; for CL / F / Vss: ref Supplemental Table S2; for F: oral bioavailability
[6] = Rats, blood/plasma ratio; ref Supplemental Table S1; cited from earlier work
[7] = no medium marked (buffer pH 7.4); ref Supplemental Table S1; cited from earlier work
[8] = cited from earlier work
[9] = ref Supplemental Table S1, cited from earlier work; for HBD: number of hydrogen bond donors; for PSA: polar surface area; for log D: octanol/water at pH 7.4
[10] = Intrinsic metabolic clearance determined in human liver microsomes; assay type: in vitro ADME; settings: pH 7.4
[11] = Rats, fraction unbound; ref Supplemental Table S1; cited from earlier work
[12] = Humans, fraction unbound in plasma; ref Supplemental Table S1; cited from earlier work
[13] = Solubility in fasted state simulated intestinal fluid; assay type: physicochemical; settings: FaSSIF, 37 °C, pH 6.5, fassif, thermodynamic from solid
[14] = Rats, i.v., ref Supplemental Table S2

| SMILES | R b [1] | Papp at 2 h, 1 μM [2] [×10⁻⁶ cm/s] | Calculated P eff from P‐Caco2 [3] | Rat blood clearance compared with liver blood flow [4] | Urinary excretion (f e) [5] | CL [5] [L/h] | F [5] | R b [6] | Solubility (Biorelevant media or Buffer, pH 7.4) [7] [mg/ml] | CL [8, 14] [mL/min/kg] | HBD [9] | PSA [9] | microsomal CLint at 1 μM [10] [µL/min/mg] | f up [11] | f up [12] | Vss [5] [L/kg] | F ([8]; rat, in vivo, po) | log D [9] | Base pKa [9] | solubility at 24 h [13] [µg/mL] | further results |
| --- | --- | --- | --- | --- | --- | --- | --- | --- | --- | --- | --- | --- | --- | --- | --- | --- | --- | --- | --- | --- | --- |
| Cc1nnc2n1-c1ccc(Cl)cc1C(c1ccccc1)=NC2 [Alprazolam] | 0.78 | 38.6 | 4.3 10^−4 cm/s | exceeding maximum liver blood flow value | 20 % of dose | 3.11 | 0.96 | 0.81 | 40 | 133 | 0 | 33.3 | < 10 | 0.35 |  |  |  |  |  |  | F ([8]; Rats, oral bioavailability, ref Supplemental Table S2): 0.28 |
| CN(C)CCCN1c2ccccc2Sc2ccc(Cl)cc21 [Chlorpromazine] |  |  |  |  |  | 76.6 | 0.31 |  |  |  | 0 | 1.8 | 47 | 0.01 | 0.06 | 8.88 | 0.02 | 2.82 | 9.7 | 814 (≈ 2550 µM) | CL ([8]; rat, in vivo, iv): 52 mL/min/kg |
| CN1CCN(C2=Nc3cc(Cl)ccc3Nc3ccccc32)CC1 [Clozapine] |  | 28.4 | 3.7 10^−4 cm/s |  | < 1 % of dose | 13.02 |  |  |  |  | 1 | 25.6 |  | 0.1 | 0.06 |  |  | 2.99 |  | 350 (≈ 1070 µM) |  |
| CCOC(=O)C1=C(C)NC(C)=C(C(=O)OC)C1c1cccc(Cl)c1Cl (centres unmarked) [Felodipine] | 0.7 |  |  |  | < 1 % of dose |  | 0.25 | 0.68 |  |  | 1 | 68.7 |  | 0.001 |  |  | 0.1 | 4.76 |  | 40 (≈ 104 µM) | Acid pKa [9]: 5.1 |
| CCOC(=O)c1ncn2c1CN(C)C(=O)c1cc(F)ccc1-2 [Flumazenil] | 1 |  |  | exceeding maximum liver blood flow value | 0.5 % of dose | 72.06 |  |  | 0.13 | 147 | 0 | 57.0 | 39 | 0.14 |  | 0.97 | 0.28 | 0.87 |  |  |  |
| COC(=O)C1=C(C)NC(C)=C(C(=O)OCCN(C)Cc2ccccc2)C1c1cccc([N+](=O)[O-])c1 (centres unmarked) [Nicardipine] |  |  |  |  |  |  |  |  |  |  | 1 | 114.0 |  | 0.01 |  |  | 0.22 |  | 7.3 | 227 (≈ 473 µM) |  |
| CCOC(=O)C1=C(C)NC(C)=C(C(=O)OC)C1c1cccc([N+](=O)[O-])c1 (centres unmarked) [Nitrendipine] | 1.46 |  |  |  | < 1 % of dose | 78.89 | 0.39 | 1.46 |  | 16.5 | 1 | 112.9 |  |  |  | 5.39 | 0.12 | 3.81 |  | 8 (≈ 22.2 µM) |  |
| CC(C)(C)NC(=O)[C@@H]1C[C@@H]2CCCC[C@@H]2CN1C[C@@H](O)[C@H](Cc1ccccc1)NC(=O)[C@H](CC(N)=O)NC(=O)c1ccc2ccccc2n1 [Saquinavir] |  | 5 | 1.6 10^−4 cm/s |  |  |  |  |  | 2.22 |  | 5 | 178.8 |  | 0.05 | 0.03 |  | 0.07 | 5.05 | 7.7 |  | CL ([8]; rat, in vivo, iv): 88.5 mL/min/kg |
| Cc1ccc(O)c([C@H](CCN(C(C)C)C(C)C)c2ccccc2)c1 [Tolterodine] |  | 26.2 | 3.6 10^−4 cm/s | exceeding maximum liver blood flow value |  | 27.72 | 0.72 |  | 12 | 166.7 | 1 | 24.1 | 115 |  |  | 1.4 | 0.02 | 2.38 |  |  |  |
